Sander's compilation of Henry's law constants (doi:10.1021/ac00062a008)

Experiment: Henry solubility constant Hcp at 298.15 K (mol/(m3 Pa))
Details: reference: Zhang and Pawliszyn (1993)

Compound | Henry solubility constant Hcp
Cc1ccc(C)cc1 [1,4-dimethylbenzene] | 0.0017
Cc1ccccc1 [methylbenzene] | 0.0015
c1ccc2cc3ccccc3cc2c1 [anthracene] | 0.11
c1ccccc1 [benzene] | 0.0015
Cc1ccccc1C [1,2-dimethylbenzene] | 0.0027
c1cc2c3c(cccc3c1)CC2 [acenaphthene] | 0.11

Further lines, results first:

Henry solubility constant Hcp | Compound
0.0025 | CCc1ccccc1 [ethylbenzene]
9.4 | c1ccc2c(c1)ccc1c3ccccc3ccc21 [chrysene]
0.021 | c1ccc2ccccc2c1 [naphthalene]
0.25 | c1ccc2c(c1)ccc1ccccc12 [phenanthrene]
